# Measurements: patent publication US12514907B2, “Treatment of exercise-induced hypoglycemia in type 1 and insulin using type 2 diabetes” (Xeris Pharmaceuticals, Inc., priority 2017, dated 2026)
# Experiments:
# patients with T1D [1] = experiment: CGM metrics after exercise session, randomized 4-period crossover trial of mini-dose glucagon in T1D; assay type: in vivo, human; conditions: no statistically significant differences
# Excerpt: Visit Schedule. (1) Screening/Baseline Visit. This visit will be used to assess eligibility and can include determination of VO2 max for fitness evaluation and for the determination of exercise intensity for the study. (2) Randomized Crossover Trial. Each participant will undergo four aerobic exercise sessions (in random order), with different strategies for glucose regulation that include: (i) Control: Fasted exercise, no basal insulin reduction; (ii) Strategy 1: Fasted exercise, basal insulin reduction only (50% reduction in basal rate five minutes before exercise, for the duration of the exercise); (iii) Strategy 2: Fasted exercise, no basal adjustment+pre-exercise glucose tabs (buccal route-40 grams in total); (iv) Strategy 3: Fasted exercise, no basal adjustment+pre-exercise mini-dose glucagon (sc). In all 4 sessions, aerobic exercise will be performed in the fasted state (before a standardized meal) for 45 minutes at ˜50-55% of the participant's predetermined aerobic capacity. The strategies for select sessions will be blinded. The day before each exercise session participants will: Insert new insulin infusion set into abdomen or upper buttock (ensure not in exercising limb); For CGM users, insert a new CGM sensor; For non-CGM users, come into clinic to have a CGM sensor inserted to use with a blinded receiver. For participants using the blinded CGM, the sensor will be removed at 12:00 PM the next day at home (˜24 hours after the end of exercise). The participant will bring the device to the next visit or mail it back to the clinic. Participants will receive a phone call the day after each exercise session to elicit any adverse events. For CGM users, the CGM data will be downloaded at each visit and arrangements made to transmit the data following the last exercise session. The participant's insulin pump will be downloaded at each visit and arrangements made to transmit the data following the last exercise session. Subjects aged 18-<65 years with a duration of T1D ≥2 years, a random C-peptide <0.6 ng/ml, that use CSII (Insulin pump) for at least 6 months, with no plans to discontinue pump use during the study and exercise regularly, ≥30 minutes moderate or more vigorous aerobic activity X≥3 times/week were randomized in a 4-period crossover trial. The control was no basal insulin adjustment, no carbs unless glucose <70 mg/dL (then 20 g dextrose given). Basal Rate Reduction: Basal rate decreased by 50% 5 minutes before start of exercise (basal rate returned to usual rate at end of exercise). Glucose Tabs: Dextrose tabs orally (20 grams) 5 min before start of exercise and 20 grams again at 30 min after start. Mini-Dose Glucagon: Glucagon (150 μg) 5 min before start of exercise (SQ-abdomen). Exercise consisted of moderate intensity aerobic activity (treadmill brisk uphill walking) performed at 50-55% VO2 max for 45 min. Performed in fasted state. Same workload performed at each exercise session. Exercise was terminated if: glucose <70 mg/dL (participant treated for hypo) and/or participant experienced dizziness, pallor and other symptoms of poor perfusion and/or exercise intolerance. Following each exercise session, participants rested for 30 min and then consumed a standardized meal. Meal contained 44-50 grams of carbohydrate (55% of calories from carbohydrate, 20% from protein, and 25% from fat). Insulin is administered as pump bolus 5 min before standardized meal using participants own carbohydrate ratio with correction only if glucose ≥270 mg/dL.
# patients with T1D [2] = experiment: Plasma glucose (YSI analyzer) during exercise/early recovery and post meal, randomized 4-period crossover trial; assay type: in vivo, human
# Excerpt: Visit Schedule. (1) Screening/Baseline Visit. This visit will be used to assess eligibility and can include determination of VO2 max for fitness evaluation and for the determination of exercise intensity for the study. (2) Randomized Crossover Trial. Each participant will undergo four aerobic exercise sessions (in random order), with different strategies for glucose regulation that include: (i) Control: Fasted exercise, no basal insulin reduction; (ii) Strategy 1: Fasted exercise, basal insulin reduction only (50% reduction in basal rate five minutes before exercise, for the duration of the exercise); (iii) Strategy 2: Fasted exercise, no basal adjustment+pre-exercise glucose tabs (buccal route-40 grams in total); (iv) Strategy 3: Fasted exercise, no basal adjustment+pre-exercise mini-dose glucagon (sc). In all 4 sessions, aerobic exercise will be performed in the fasted state (before a standardized meal) for 45 minutes at ˜50-55% of the participant's predetermined aerobic capacity. The strategies for select sessions will be blinded. Sample collection. Blood samples collected through a venous catheter with plasma glucose measured by an YSI analyzer. Blood samples will be collected at: Baseline (at −30, −15, −5, 0 min), During exercise (at 5, 10, 15, 25, 35, 45 min), In recovery post exercise (at 50, 55, 60, 75 min), Regularly following a standardized mixed meal for 90 minutes (at 90, 105, 120, 135, and 165 min). Plasma from the collected blood samples will be used to measure the following hormones, proinflammatory markers and metabolites at baseline, during exercise, in recovery post exercise, and regularly following the standardized mixed meal: Insulin, Glucagon, Cortisol, Growth hormone, Catecholamines (epinephrine and norepinephrine), Interleukin-6, tumor necrosis factor-α, Nonesterified fatty acids, β-hydroxybutyrate, and/or Lactate. […]
# [3] = late recovery period (standard meal to noon the day after exercise session), mean
# [4] = late recovery period (standard meal to noon the day after exercise session), median
# [5] = overnight (midnight to 6 am the day after exercise session), mean
# [6] = overnight (midnight to 6 am the day after exercise session), median
substance,measurement,setting,value
glucagon [MDG],% of time 70-180 mg/dL-mean,patients with T1D [1]; [3],66%
same,% of time <70 mg/dl-mean,patients with T1D [1]; [3],7%
same,Coefficient of Variation-median,patients with T1D [1]; [4],34%
same,"Mean Glucose, mg/dL-median",patients with T1D [1]; [4],150 mg/dL
same,"Nadir Glucose, mg/dL-median",patients with T1D [1]; [4],51 mg/dL
same,% of time 70-180 mg/dl-mean,patients with T1D [1]; [5],59%
same,% of time <70 mg/dl-mean,patients with T1D [1]; [5],4%
same,Coefficient of Variation-median,patients with T1D [1]; [6],21%
same,"Mean Glucose, mg/dl-median",patients with T1D [1]; [6],156 mg/dL
same,"Nadir Glucose, mg/dL-median",patients with T1D [1]; [6],91 mg/dL
same,Occurrence of Hypoglycemia (<70 mg/dL)-%,patients with T1D [1]; overnight (midnight to 6 am the day after exercise session),23%
same,post-intervention hyperglycemia,patients with T1D [2]; compared with ingestion of carbohydrate,less post-intervention hyperglycemia than ingestion of carbohydrate
same,reducing exercise-induced hypoglycemia,patients with T1D [2]; compared with insulin reduction,more effective than insulin reduction
same,frequency of a drop in glucose concentration,"patients with T1D [2]; given just before aerobic exercise, people with type 1 diabetes",reduces the frequency of a drop in glucose concentration
